Reference: patent US20250114460A1, “NOVEL PLK1 DEGRADATION INDUCING COMPOUND” (UPPTHERA, INC., priority 2021, published 2025)
Where two headings read alike, the source gives them in different places.

Tests used:
Format in all cases: cell-based
PLK1 = molecular target: T1, PLK1 (Homo sapiens, UniProt P53350); test: Luciferase assay for PLK1 in HeLa LgBit (Plk1-HiBit KI) cell line; details: 300 nM compound, luminescence after 9 hours
T1 construct: endogenous in cells; host or cells: HeLa LgBit (Plk1-HiBit KI): HeLa stably expressing LgBit, with a CRISPR/Cas9 knock-in of HiBit at the endogenous PLK1 locus
Method in brief: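 Luminescence, followed in real time after adding compound at 300 nM and Endurazine substrate, is reported relative to DMSO-treated wells. Cells are a HeLa LgBit line with a Plk1-HiBit knock-in, synchronized by 2 mM thymidine for 24 h, released, and cultured 18 h before treatment.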

NCI-H526 cell line = test: Cell viability assay for H526 cell (EZ-Cytox); details: Homo sapiens, NCI-H526, 120 h; H526 cells, 5 days, 3000 nM to 0.46 nM
Method in brief: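 Read-out was EZ-Cytox colorimetric absorbance at 450 nm, taken after brief plate shaking, with IC50 derived. Before reading, H526 cells had been cultured with test compound for 5 days.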

MRC-5 cell line = test: Cell viability assay for MRC-5 cell line (EZ-Cytox); details: Homo sapiens, MRC5, 120 h, read-out: Activity: IC50 value of Exemplary Compound to MRC-5 cell line
Experimental: 4. Cell Viability Assay for MRC-5 Cell Line
(1) Culture of MRC-5 Cell Line
Passage of cultured cells was maintained within P15.
(2) Treatment of Compounds of the Present Invention
Then, it was cultured in 37° C.
(3) Cytotoxicity Experiment
CO2 incubator for 4 hours.

[1] = MRC-5 normal cell line, 5 days, 10000 nM to 1.52 nM, N.D. = no cytotoxicity until 10 μM

T1 sequence (P53350 whole entry): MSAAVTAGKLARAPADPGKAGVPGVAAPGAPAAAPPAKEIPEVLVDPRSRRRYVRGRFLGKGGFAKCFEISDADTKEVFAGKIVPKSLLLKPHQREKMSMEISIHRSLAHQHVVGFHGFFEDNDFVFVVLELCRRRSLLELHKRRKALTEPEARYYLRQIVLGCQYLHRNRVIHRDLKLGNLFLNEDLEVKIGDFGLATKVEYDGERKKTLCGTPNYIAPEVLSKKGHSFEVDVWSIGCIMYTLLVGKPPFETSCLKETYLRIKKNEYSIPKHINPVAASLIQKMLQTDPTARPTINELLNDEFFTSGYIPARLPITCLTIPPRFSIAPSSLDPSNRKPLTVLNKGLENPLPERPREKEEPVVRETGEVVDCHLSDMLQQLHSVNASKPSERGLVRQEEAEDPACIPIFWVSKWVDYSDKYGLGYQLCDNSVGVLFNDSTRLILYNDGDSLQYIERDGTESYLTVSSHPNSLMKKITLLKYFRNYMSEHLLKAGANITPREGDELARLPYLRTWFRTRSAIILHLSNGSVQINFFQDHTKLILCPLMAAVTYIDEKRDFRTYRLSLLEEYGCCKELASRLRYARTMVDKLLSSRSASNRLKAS

Row | Structure (SMILES) | Activity: ratio of the luminescense value of each Exemplary Compound treatment group to DMSO treatment group (PLK1) | IC50 (NCI-H526 cell line) [µM] | IC50 (MRC-5 cell line; [1]) [µM] | IC50 (MRC-5 cell line) [µM]
1 | COc1cc(C(=O)NN2CCC(N3CC4(CCN(c5cc6c(cc5F)C(=O)N(C5CCC(=O)NC5=O)C6=O)CC4)C3)CC2)ccc1Nc1ncc2c(n1)N(C(C)C)CC(F)(F)C(=O)N2C (stereo not drawn) [Compound 216, 4-((7,7-difluoro-9-isopropyl-5-methyl-6-oxo-6,7,8,9-tetrahydro-5H-pyrimido[4,5-b][1,4]diazepin-2-yl)amino)-N-(4-(7-(2-(2,6-dioxopiperidin-3-yl)-6-fluoro-1,3-dioxoisoindolin-5-yl)-2,7-diazaspiro[3.5]nonan-2-yl)piperidin-1-yl)-3-methoxybenzamide] | ++ (++<0.6) | < 0.2 | 27 | 
2 | COc1cc(C(=O)NC2CCCN(CCN3CCN(c4cccc5c4C(=O)N(C4CCC(=O)NC4=O)C5=O)CC3)C2)ccc1Nc1ncc2c(n1)N(C1CCCC1)CC(F)(F)C(=O)N2C (stereo not drawn) [Compound 143, 4-((9-cyclopentyl-7,7-difluoro-5-methyl-6-oxo-6,7,8,9-tetrahydro-5H-pyrimido[4,5-b][1,4]diazepin-2-yl)amino)-N-(1-(2-(4-(2-(2,6-dioxopiperidin-3-yl)-1,3-dioxoisoindolin-4-yl)piperazin-1-yl)ethyl)piperidin-3-yl)-3-methoxybenzamide] | ++ (++<0.6) | < 0.1 |  | > 10
3 | COc1cc(C(=O)N[C@@H]2CCN(C(=O)COc3cccc4c3C(=O)N(C3CCC(=O)NC3=O)C4=O)C2)ccc1Nc1ncc2c(n1)N(C1CCCC1)CC(F)(F)C(=O)N2C (stereo partly drawn) [Compound 39, 4-((9-cyclopentyl-7,7-difluoro-5-methyl-6-oxo-6,7,8,9-tetrahydro-5H-pyrimido[4,5-b][1,4]diazepin-2-yl)amino)-N-((3R)-1-(2-((2-(2,6-dioxopiperidin-3-yl)-1,3-dioxoisoindolin-4-yl)oxy)acetyl)pyrrolidin-3-yl)-3-methoxybenzamide] | ++ (++<0.6) | < 0.1 | > 10 | 
4 | COc1cc(C(=O)NN2CCC(N3CC4(CCN(c5ccc6c(c5)CN(C5CCC(=O)NC5=O)C6=O)CC4)C3)CC2)ccc1Nc1ncc2c(n1)N(C(C)C)CC(F)(F)C(=O)N2C (stereo not drawn) [Compound 219, 4-((7,7-difluoro-9-isopropyl-5-methyl-6-oxo-6,7,8,9-tetrahydro-5H-pyrimido[4,5-b][1,4]diazepin-2-yl)amino)-N-(4-(7-(2-(2,6-dioxopiperidin-3-yl)-1-oxoisoindolin-5-yl)-2,7-diazaspiro[3.5]nonan-2-yl)piperidin-1-yl)-3-methoxybenzamide] | ++ (++<0.6) | < 0.03 | 13 | 
5 | COc1cc(C(=O)N[C@H]2CC[C@H](N(C)CCCOc3cccc4c3C(=O)N(C3CCC(=O)NC3=O)C4=O)CC2)ccc1Nc1ncc2c(n1)N(C1CCCC1)CC(F)(F)C(=O)N2C (stereo partly drawn) [Compound 15, 4-((9-cyclopentyl-7,7-difluoro-5-methyl-6-oxo-6,7,8,9-tetrahydro-5H-pyrimido[4,5-b][1,4]diazepin-2-yl)amino)-N-((1r,4r)-4-((3-((2-(2,6-dioxopiperidin-3-yl)-1,3-dioxoisoindolin-4-yl)oxy)propyl)(methyl)amino)cyclohexyl)-3-methoxybenzamide] | ++ (++<0.6) | < 0.05 | 16.7 | 

Continued, in another order:

Row | Activity: ratio of the luminescense value of each Exemplary Compound treatment group to DMSO treatment group (PLK1) | Structure (SMILES) | IC50 (NCI-H526 cell line) [µM] | IC50 (MRC-5 cell line; [1]) [µM] | IC50 (MRC-5 cell line) [µM]
6 | ++ (++<0.6) | COc1cc(C(=O)N[C@H]2CC[C@H](N3CCN(c4cccc5c4C(=O)N(C4CCC(=O)NC4=O)C5=O)CC3)CC2)ccc1Nc1ncc2c(n1)N(C1CCCC1)CC(F)(F)C(=O)N2C (stereo partly drawn) [Compound 131, 4-((9-cyclopentyl-7,7-difluoro-5-methyl-6-oxo-6,7,8,9-tetrahydro-5H-pyrimido[4,5-b][1,4]diazepin-2-yl)amino)-N-((1r,4r)-4-(4-(2-(2,6-dioxopiperidin-3-yl)-1,3-dioxoisoindolin-4-yl)piperazin-1-yl)cyclohexyl)-3-methoxybenzamide] | < 0.05 | > 10 | 
7 | +++ (+++: <0.3) | COc1cc(C(=O)NC2CCN(C(=O)CCN3CCN(c4cccc5c4C(=O)N(C4CCC(=O)NC4=O)C5=O)CC3)CC2)ccc1Nc1ncc2c(n1)N(C(C)C)CC(F)(F)C(=O)N2C (stereo not drawn) [Compound 66, 4 4-((7,7-difluoro-9-isopropyl-5-methyl-6-oxo-6,7,8,9-tetrahydro-5H-pyrimido[4,5-b][1,4]diazepin-2-yl)amino)-N-(1-(3-(4-(2-(2,6-dioxopiperidin-3-yl)-1,3-dioxoisoindolin-4-yl)piperazin-1-yl)propanoyl)piperidin-4-yl)-3-methoxybenzamide] | < 0.05 | > 10 | 
8 | ++ (++<0.6) | COc1cc(C(=O)N[C@H]2CC[C@H](N3CCN(CCCNc4cccc5c4C(=O)N(C4CCC(=O)NC4=O)C5=O)CC3)CC2)c(F)cc1Nc1ncc2c(n1)N(C1CCCC1)CC(F)(F)C(=O)N2C (stereo partly drawn) [Compound 197, 4-((9-cyclopentyl-7,7-difluoro-5-methyl-6-oxo-6,7,8,9-tetrahydro-5H-pyrimido[4,5-b][1,4]diazepin-2-yl)amino)-N-((1r,4r)-4-(4-(3-((2-(2,6-dioxopiperidin-3-yl)-1,3-dioxoisoindolin-4-yl)amino)propyl)piperazin-1-yl)cyclohexyl)-2-fluoro-5-methoxybenzamide] | < 0.05 | 18 | 
9 | ++ (++<0.6) | COc1cc(C(=O)N[C@H]2CCN(C(=O)COc3cccc4c3C(=O)N(C3CCC(=O)NC3=O)C4=O)C2)ccc1Nc1ncc2c(n1)N(C1CCCC1)CC(F)(F)C(=O)N2C (stereo partly drawn) [Compound 40, 4-((9-cyclopentyl-7,7-difluoro-5-methyl-6-oxo-6,7,8,9-tetrahydro-5H-pyrimido[4,5-b][1,4]diazepin-2-yl)amino)-N-((3S)-1-(2-((2-(2,6-dioxopiperidin-3-yl)-1,3-dioxoisoindolin-4-yl)oxy)acetyl)pyrrolidin-3-yl)-3-methoxybenzamide] | < 0.2 | > 10 | 
10 | +++ (+++: <0.3) | COc1cc(C(=O)NN2CCC(CN3CCN(c4cccc5c4CN(C4CCC(=O)NC4=O)C5=O)CC3)C(F)(F)C2)ccc1Nc1ncc2c(n1)N(C(C)C)CC(F)(F)C(=O)N2C (stereo not drawn) [Compound 158, 4-((7,7-difluoro-9-isopropyl-5-methyl-6-oxo-6,7,8,9-tetrahydro-5H-pyrimido[4,5-b][1,4]diazepin-2-yl)amino)-N-(4-((4-(2-(2,6-dioxopiperidin-3-yl)-1-oxoisoindolin-4-yl)piperazin-1-yl)methyl)-3,3-difluoropiperidin-1-yl)-3-methoxybenzamide] | < 0.05 | 39.3 | 
11 | ++ (++<0.6) | COc1cc(C(=O)NN2CC(CN3CCN(c4cccc5c4C(=O)N(C4CCC(=O)NC4=O)C5=O)CC3)C2)ccc1Nc1ncc2c(n1)N(C(C)C)CC(F)(F)C(=O)N2C (stereo not drawn) [Compound 161, 4-((7,7-difluoro-9-isopropyl-5-methyl-6-oxo-6,7,8,9-tetrahydro-5H-pyrimido[4,5-b][1,4]diazepin-2-yl)amino)-N-(3-((4-(2-(2,6-dioxopiperidin-3-yl)-1,3-dioxoisoindolin-4-yl)piperazin-1-yl)methyl)azetidin-1-yl)-3-methoxybenzamide] | < 0.03 | > 10 | 
12 | ++ (++<0.6) | COc1cc(C(=O)NN2CCC(N3CC4(CCN(c5ccc6c(c5)C(=O)N(C5CCC(=O)NC5=O)C6=O)CC4)C3)CC2)ccc1Nc1ncc2c(n1)N(C1CCCC1)CC(F)(F)C(=O)N2C (stereo not drawn) [Compound 212, 4-((9-cyclopentyl-7,7-difluoro-5-methyl-6-oxo-6,7,8,9-tetrahydro-5H-pyrimido[4,5-b][1,4]diazepin-2-yl)amino)-N-(4-(7-(2-(2,6-dioxopiperidin-3-yl)-1,3-dioxoisoindolin-5-yl)-2,7-diazaspiro[3.5]nonan-2-yl)piperidin-1-yl)-3-methoxybenzamide] | < 0.03 | > 10 | 
13 | +++ (+++: <0.3) | COc1cc(C(=O)NC2CCN(C(=O)CCN3CCN(c4cccc5c4C(=O)N(C4CCC(=O)NC4=O)C5=O)CC3)CC2)c(Cl)cc1Nc1ncc2c(n1)N(C1CCCC1)CC(F)(F)C(=O)N2C (stereo not drawn) [Compound 78, 2-chloro-4-((9-cyclopentyl-7,7-difluoro-5-methyl-6-oxo-6,7,8,9-tetrahydro-5H-pyrimido[4,5-b][1,4]diazepin-2-yl)amino)-N-(1-(3-(4-(2-(2,6-dioxopiperidin-3-yl)-1,3-dioxoisoindolin-4-yl)piperazin-1-yl)propanoyl)piperidin-4-yl)-5-methoxybenzamide] | < 0.1 | > 10 | 
